Drawing on US6207669A, “Bicyclic heteroaromatic compounds as protein tyrosine kinase inhibitors” (Glaxo Wellcome Inc., priority 1996, dated 2001), this text covers IC50 for 16 molecules.

pIC50: −log10 of the molar value. Structures can show the parent of a compound that is named as a salt. Where two headings read alike, the source gives them in different places.

Test [1] deals with HB4a cell line transformed by over-expression of c-erbB-2. As to the kind of experiment: Cell proliferation assay, HB4a erbB-2. Particulars: Homo sapiens, 96 h, 4 days, methylene blue staining. Format: cell-based. The procedure:
(§1) The cell proliferation assay uses an immortalised human breast epithelial cell line (HB4a) which has been transformed by over-expression of c-erbB-2. Growth of these cells in low serum is dependent upon the c-erbB-2 tyrosine kinase activity. […] Cells are plated at 3000/well in 96-well plates in […] medium and allowed to attach overnight. test compound is added in 0.1 ml medium, with a final concentration of 0.5% DMSO, and the plates incubated for 4 days at 37° C. The cells are then examined microscopically for evidence of morphological detransformation and cell mass is estimated by staining with methylene blue and measuring the absorbance at 620 nm. […] Activity against a range of naturally occurring EGFr or c-erbB-2 over-expressing human tumour cell lines (BT474-breast, HN5-head and neck, N87 gastric and Calu3-lung) is assessed with selected compounds by the same methodology.

Test [2] has as its target T1, EGFr isolated from solubilised A431 cell membranes (Homo sapiens, UniProt P00533).
T1 construct: EGFr isolated from solubilised A431 cell membranes; endogenous in cells; host or cells: A431 cells (solubilised membranes)
The test can be described thus: Substrate phosphorylation assay, EGFr. Format: biochemical. Particulars: 30 minutes, room temperature, ATP and peptide at Km. The procedure:
(§2) The substrate phosphorylation assays use baculovirus expressed, recombinant constructs of the intracellular domains of c-erbB-2 and c-erbB4 that are constitutively active and EGFr isolated from solubilised A431 cell membranes. The method measures the ability of the isolated enzymes to catalyse the transfer of the γ-phosphate from ATP onto tyrosine residues in a biotinylated synthetic peptide (Biotin-GluGluGluGluTyrPheGluLeuVal). The enzyme is incubated for 30 minutes, at room temperature, with 10 mM […], ATP and peptide at Km concentrations, and test compound (diluted from a 5 mM stock in DMSO, final DMSO concentration is 2%) in 40 mM HEPES buffer, pH 7.4. The reaction is stopped by the addition of EDTA (final concentration 0.15 mM) and a sample is transferred to a streptavidin-coated 96-well plate. The plate is washed and the level of phosphotyrosine on the peptide is determined using a Europium-labelled antiphosphotyrosine antibody and quantified with a time-resolved fluorescence technique. The results are shown in Table 1 as the IC50 values in nM.

The target of test [3] is T2, c-erbB4 (baculovirus expressed, recombinant intracellular domain) (Homo sapiens, UniProt Q15303).
T2 construct: recombinant constructs of the intracellular domains of c-erbB-2 and c-erbB4 that are constitutively active; made in house
T2 sequence (Q15303 676-1308 limits assumed): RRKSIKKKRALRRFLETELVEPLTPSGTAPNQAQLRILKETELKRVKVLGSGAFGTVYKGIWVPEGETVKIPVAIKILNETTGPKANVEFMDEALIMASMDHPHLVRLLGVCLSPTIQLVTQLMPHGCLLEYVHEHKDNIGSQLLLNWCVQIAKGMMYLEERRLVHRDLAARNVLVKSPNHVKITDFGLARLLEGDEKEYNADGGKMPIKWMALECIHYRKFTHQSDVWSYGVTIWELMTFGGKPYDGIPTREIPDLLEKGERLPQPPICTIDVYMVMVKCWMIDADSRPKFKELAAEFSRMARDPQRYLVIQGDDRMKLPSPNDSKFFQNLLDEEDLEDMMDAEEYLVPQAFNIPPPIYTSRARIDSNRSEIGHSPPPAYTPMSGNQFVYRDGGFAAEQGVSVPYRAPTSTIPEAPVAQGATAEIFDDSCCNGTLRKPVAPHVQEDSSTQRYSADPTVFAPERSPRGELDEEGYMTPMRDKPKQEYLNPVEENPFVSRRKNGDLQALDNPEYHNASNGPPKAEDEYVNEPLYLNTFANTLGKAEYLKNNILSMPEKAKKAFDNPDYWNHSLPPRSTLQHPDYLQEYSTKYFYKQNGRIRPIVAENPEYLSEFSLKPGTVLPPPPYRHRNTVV
As to the kind of experiment: Substrate phosphorylation assay, c-erbB4. It is filed as biochemical. Particulars: 30 minutes, room temperature, ATP and peptide at Km; read-out: Substrate Phosphorylation erbB-4 IC50. The procedure:
as §2

Test [4] has as its target T3, c-erbB-2 (baculovirus expressed, recombinant intracellular domain) (Homo sapiens, UniProt P04626).
T3 construct: recombinant constructs of the intracellular domains of c-erbB-2 and c-erbB4 that are constitutively active; made in house
The test can be described thus: Substrate phosphorylation assay, c-erbB-2. It is filed as biochemical. Particulars: 30 minutes, room temperature, ATP and peptide at Km. The procedure: The substrate phosphorylation assays use baculovirus expressed, recombinant constructs of the intracellular domains of c-erbB-2 and c-erbB4 that are constitutively active and EGFr isolated from solubilised A431 cell membranes. […] The reaction is stopped by the addition of EDTA (final concentration 0.15 mM) and a sample is transferred to a streptavidin-coated 96-well plate. The plate is washed and the level of phosphotyrosine on the peptide is determined using a Europium-labelled antiphosphotyrosine antibody and quantified with a time-resolved fluorescence technique. The results are shown in Table 1 as the IC50 values in nM.

Test [5] deals with HB4a cell line transfected with ras. The test can be described thus: Cell proliferation assay, HB4a ras. Format: cell-based. Particulars: Homo sapiens, 96 h, 4 days, methylene blue staining, general toxicity comparison.
Test [6] relates to HN5-head and neck tumour cell line. The test can be described thus: Cell proliferation assay, HN5. It is filed as cell-based. Particulars: Homo sapiens, 96 h, read-out: Cell Proliferation HN5 IC50. The procedure: as §1
The subject of test [7] is N87 gastric tumour cell line. The test can be described thus: Cell proliferation assay, N87. It is filed as cell-based. Particulars: Homo sapiens, 96 h; 4 days, methylene blue staining. The procedure: as §1
The test system of test [8] is BT474-breast tumour cell line. As to the kind of experiment: Cell proliferation assay, BT474. It is filed as cell-based. Particulars: Homo sapiens, BT-474, 96 h; 4 days, methylene blue staining. The procedure: as §1
Test [9] relates to Calu3-lung tumour cell line. As to the kind of experiment: Cell proliferation assay, Calu3. Particulars: Homo sapiens, Calu-3, 96 h; 4 days, methylene blue staining. Format: cell-based. The protocol: as §1
Where [10] appears, read: 4 days, methylene blue staining.

T3 sequence (P04626 676-1255 limits assumed): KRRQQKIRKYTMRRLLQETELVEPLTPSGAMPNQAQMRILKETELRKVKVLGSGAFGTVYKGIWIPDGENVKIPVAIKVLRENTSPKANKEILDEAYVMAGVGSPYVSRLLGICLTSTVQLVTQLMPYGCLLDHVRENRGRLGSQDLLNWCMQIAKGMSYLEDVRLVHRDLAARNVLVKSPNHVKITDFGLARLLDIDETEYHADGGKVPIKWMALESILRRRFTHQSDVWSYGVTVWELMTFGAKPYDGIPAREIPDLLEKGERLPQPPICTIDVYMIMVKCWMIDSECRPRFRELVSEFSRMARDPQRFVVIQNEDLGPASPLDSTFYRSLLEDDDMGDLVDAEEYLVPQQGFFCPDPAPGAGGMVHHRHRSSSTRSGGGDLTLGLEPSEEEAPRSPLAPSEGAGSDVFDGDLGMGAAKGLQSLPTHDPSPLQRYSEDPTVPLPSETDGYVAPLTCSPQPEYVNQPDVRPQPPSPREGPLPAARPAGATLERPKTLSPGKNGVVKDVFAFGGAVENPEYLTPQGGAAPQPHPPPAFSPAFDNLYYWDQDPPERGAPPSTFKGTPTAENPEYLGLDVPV
T1 sequence (P00533 25-1210): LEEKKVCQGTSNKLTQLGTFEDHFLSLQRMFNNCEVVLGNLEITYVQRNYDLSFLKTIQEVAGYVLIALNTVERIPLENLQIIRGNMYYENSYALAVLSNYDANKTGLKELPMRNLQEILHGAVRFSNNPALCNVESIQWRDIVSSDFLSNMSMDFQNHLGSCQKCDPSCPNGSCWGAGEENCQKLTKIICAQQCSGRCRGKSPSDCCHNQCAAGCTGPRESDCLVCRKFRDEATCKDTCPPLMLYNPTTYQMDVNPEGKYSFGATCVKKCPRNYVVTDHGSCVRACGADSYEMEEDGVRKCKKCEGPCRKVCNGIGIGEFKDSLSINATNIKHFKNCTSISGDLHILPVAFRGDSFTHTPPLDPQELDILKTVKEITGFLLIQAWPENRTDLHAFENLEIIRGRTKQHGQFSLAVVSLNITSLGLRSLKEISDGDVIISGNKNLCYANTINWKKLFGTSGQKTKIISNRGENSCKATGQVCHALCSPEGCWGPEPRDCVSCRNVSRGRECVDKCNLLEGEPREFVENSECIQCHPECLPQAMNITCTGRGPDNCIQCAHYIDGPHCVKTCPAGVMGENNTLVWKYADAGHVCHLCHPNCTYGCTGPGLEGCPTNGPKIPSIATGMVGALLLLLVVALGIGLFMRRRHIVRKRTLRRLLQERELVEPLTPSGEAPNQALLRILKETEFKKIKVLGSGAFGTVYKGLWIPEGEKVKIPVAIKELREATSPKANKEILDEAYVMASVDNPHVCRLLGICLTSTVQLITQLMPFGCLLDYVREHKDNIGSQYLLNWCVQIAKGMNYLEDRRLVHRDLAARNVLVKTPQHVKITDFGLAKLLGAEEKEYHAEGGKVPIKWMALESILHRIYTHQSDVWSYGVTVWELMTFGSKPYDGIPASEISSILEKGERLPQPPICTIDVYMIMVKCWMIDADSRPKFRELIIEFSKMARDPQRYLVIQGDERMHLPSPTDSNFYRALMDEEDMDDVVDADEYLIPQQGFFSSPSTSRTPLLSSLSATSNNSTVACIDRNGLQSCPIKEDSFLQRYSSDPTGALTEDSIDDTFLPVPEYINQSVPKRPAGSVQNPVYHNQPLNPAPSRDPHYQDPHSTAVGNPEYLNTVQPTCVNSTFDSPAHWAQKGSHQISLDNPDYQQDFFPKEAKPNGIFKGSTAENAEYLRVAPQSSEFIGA

Regarding `c1ccc(COc2ccc(Nc3ncnc4cnc(-c5ccc(CNc6cccnc6)o5)cc34)cc2)cc1` [Example 5, (4-Benzyloxy-phenyl)-(6-(5-(pyridin-3-ylaminomethyl)-furan-2-yl)-pyrido[3,4-d]pyrimidin-4-yl)-amine], the pIC50 in test [1] is 5.25; in [2], 6.59; in [3] it was 5.80; in test [4], 6.96; in test [5], 5.09.
With `NC(=O)[C@H]1CCCN1Cc1ccc(-c2cc3c(Nc4ccc(OCc5ccccc5)cc4)ncnc3cn2)o1` [Example 13, (2R)-1-{5-[4-(4-Benzyloxy-phenylamino)-pyrido[3,4-d]pyrimidin-6-yl]-furan-2-ylmethyl}pyrrolidine-2-carboxalic acid amide hydrochloride], the pIC50 is 6.77 in test [1]; 6.46 in [6]; 6.32 in test [3]; 7.85 in test [4]; less than 4.30 in test [5].
Turning to `CN(C)Cc1ccc(-c2cc3c(Nc4ccc(OCc5ccccc5)cc4)ncnc3cn2)o1` [Example 6, (4-Benzyloxy-phenyl)6-(5-(dimethyyaminomethyl)-furan-2-yl)pyrido[3,4-d]pyrimidin4-yl)-amine hydrochloride], the pIC50 in [1] is 5.82; in test [2], 6.42; in [3], 5.62; in test [4], 7.01; in [5] it was 5.66.
Turning to `C[S+]([O-])CCNCc1ccc(-c2cc3c(Nc4ccc(OCc5ccccc5)cc4)ncnc3cn2)o1` (stereo not drawn) [Example 10, (4-Benzyloxy-phenyl)-(6-(5-((2-methanesulphinyl-ethylamino)-methyl)-furan-2-yl)-pyrido[3,4-d]pyrimidin-4-yl)-amine], the pIC50 in [1] is 6.60; in test [2] it was 6.85; in test [4], 7.66; in test [5], 5.06.
In the case of `COC(=O)CNCc1ccc(-c2cc3c(Nc4ccc(OCc5ccccc5)cc4)ncnc3cn2)o1` [Example 4, ((5-4-(4-Benzloxy-phenylamino)-pyrido[3,4-d]pyrimidin-6-yl)-furan-2-ylmethyl)-amino)-acetic acid methyl ester hydrochloride], the pIC50 in test [1] was 4.54; in [2], 6.89; in test [3], 6.28; in [4], 7.89; in test [5], 4.80.
With `CS(=O)(=O)NCCNCc1ccc(-c2cc3c(Nc4ccc(OCc5ccccc5)cc4)ncnc3cn2)o1` [Example 17, N-(2-((5-(4-(4-Benzyloxy-phenylamino)-pyrido[3,4-d]pyrimidin-6-yl)-furan-2-ylmethyl)-amino)-ethyl)-methanesulphonamide hydrochloride], the pIC50 in test [1] was 6.60; in test [6] (setting [10]) it was 6.14; in [7], 6.82; in test [3] it was 6.12; in [4] it was 7.54; in test [8] it was 7.00. In addition, the pIC50 in test [9] was 5.43; in [5], 5.46.
Consider `CN(CCS(C)(=O)=O)Cc1ccc(-c2cc3c(Nc4ccc(OCc5ccccc5)cc4)ncnc3cn2)o1` [Example 15], for which the pIC50 in test [1] is 6.52; in test [3], 5.82; in [4] it was 7.52; in test [5], 5.07.
Consider `CC(=O)NCCNCc1ccc(-c2cc3c(Nc4ccc(OCc5ccccc5)cc4)ncnc3cn2)o1` [Example 9], for which the pIC50 is 6.14 in [1]; 7.02 in [2]; 6.00 in test [3]; 8.15 in [4]; 5.41 in [5].
As to `c1ccc(COc2ccc(Nc3ncnc4cnc(-c5ccc(CN6CCCCC6)o5)cc34)cc2)cc1` [Example 1, (4-Benzyloxy-phenyl)-(6-(5-piperidin-1-ylmethyl)-furan-2-yl)-pyrido3,4-d]pyrimidin-4-yl)-amine hydrochloride], the results for the pIC50 in test [2], in test [3] and in [4] were 6.77, 5.85 and 7.15, respectively.
`CS(=O)(=O)CCCNCc1ccc(-c2cc3c(Nc4ccc(OCc5ccccc5)cc4)ncnc3cn2)o1` [Example 14]: the figures for the pIC50 in [3] and in test [4] were 5.41 and 6.38, respectively.
Regarding `CN(C)C(=O)[C@@H]1CCCN1Cc1ccc(-c2cc3c(Nc4ccc(OCc5ccccc5)cc4)ncnc3cn2)o1` [Example 16, (2S)-1-{-5-[4-(4-Benzyloxy-phenylamino)-pyrido[3,4-d]pyrimidin-6-yl]-furan-2-ylmethyl}-pyrrolidine-2-carboxylic acid dimethylamide], the pIC50 was 5.68 in test [1]; 5.48 in [6] (setting [10]); 6.17 in [7]; 5.55 in test [3]; 6.55 in test [4]; 5.10 in [5].
Take `O=C(O)CNCc1ccc(-c2cc3c(Nc4ccc(OCc5ccccc5)cc4)ncnc3cn2)o1` [Example 11, ((5-(4-(4-Benzyloxy-phenylamino)-pyrido[3,4-d]pyrimidine-6yl)-furan-2-ylmethyl)-amino)-acetic acid hydrochloride]: the pIC50 in [1] was 4.30; in [2] it was 7.06; in test [3], 6.35; in [4] it was 7.72; in test [5], 5.23.
Turning to `CS(=O)(=O)CCNCc1ccc(-c2cc3c(Nc4ccc(OCc5ccccc5)cc4)ncnc3cn2)o1` [Example 3, 4-Benzyloxy-phenyl)-(6-(5-((2-methanesulphonyl-ethylamino)methyl)-furan-2-yl-pyrido[3,4-d]pyrimidin-4-yl)-amine hydrochloride], the pIC50 was 6.30 in test [1]; 6.85 in test [2]; 6.72 in [3]; 8.00 in [4]; 4.51 in [5].
Take `CN1CCN(Cc2ccc(-c3cc4c(Nc5ccc(OCc6ccccc6)cc5)ncnc4cn3)o2)CC1` [Example 2, (4-Benzyloxy-phenyl)-(6-(5-(4-methyl-piperazin-1-ylmethy)-furan-2-yl)pyrido[3,4-d]pyrimidin-4-yl)-amine]: the pIC50 is 6.37 in test [1]; 6.77 in test [2]; 6.12 in [3]; 7.22 in test [4]; 5.68 in [5].
`NC(=O)[C@@H]1CCCN1Cc1ccc(-c2cc3c(Nc4ccc(OCc5ccccc5)cc4)ncnc3cn2)o1` [Example 7, (2S)-1-(5-(4-(4-Benzyloxy-phenylamino)-pyrido[3,4-d]pyrimidine-6-yl)-furan-2-ylmethyl)-pyrrolidine-2-carboxylic acid amide hydrochloride]: the pIC50 in [1] is 6.39; in test [2], 7.10; in test [3], 7.08; in test [4] it was 7.36; in test [5], 4.82.
Consider `OCc1ccc(-c2cc3c(Nc4ccc(OCc5ccccc5)cc4)ncnc3cn2)o1` [Example 12, (5-4-(4-(4-Benzyloxy-phenylamino)-pyrido[3,4-d]pyrimidin-6-yl)-furan-2-yl)-methanol hydrochloride], for which the pIC50 in test [1] is 6.36; in test [6], 6.34; in test [2] it was 7.51; in test [3], 6.31; in test [4], 8.40; in test [5] it was 5.12.
